Data as given in patent publication US6440400B1, “Trimethylcylohexane derivatives and melanin-formation inhibitors and perfumeholding agents with the use of the same” (Takasago International Corporation, priority 1998, dated 2002).

Columns and labels:
[1] = tested on: B-16 melanoma cells; test: Melanin production inhibiting effect on chromatophore (visual whiteness of cell pellets); type: cell-based; design: key: −: Equal to solvent control (black); +: Slightly different from solvent control (dark gray); ++: Markedly different from solvent control (pale gray); +++: No coloring of cells (white); details: 3 days culture with sample
Description: A plastic culture flask (25 cm^2) was inoculated with 8×10^4 B-16 melanoma cells, which were incubated in a DMEN medium (Nippon Suisan Kaisha, Ltd.) containing 10% serum in the presence of 5% CO2 at 37° C. After 3 days, a test sample diluted with EtOH was added to the medium at a concentration of 0.4, 0.8, 1.6, 3.1 and 6.2 ppm and the culture was continued for further 3 days.
After completion of the culture to remove the culture followed by washing with a phosphate buffer (hereinafter referred to as PBS), the cells were removed from the flask using a medium containing trypsin and EDTA (ethylenediamine tetraacetic acid) and the cells were recovered from the cell suspension by centrifugation.
The cells thus obtained were washed once with PBS and then the pellets were evaluated visually for their whiteness.
Similarly to Example 16, the melanin production inhibiting effects of arbutin, tetrahydroionol, β-ionone, dihydro-β-ionone and the novel compounds of the invention (1′i, 1″i, 1^4′i) on a chromatophore were determined.

[2] = Patch test of 2% lanolin paste on upper arm of panelists; type: in vivo, human; details: 2% by weight in lanolin paste, 24 h patch on upper arm, 30 panelists, observed at removal and 24 h later

With `CCCC(=O)C=CC1C(C)CCCC1(C)C` (stereo not drawn) [1′c] as the compound, how does the “whiteness of cell pellets, evaluated visually” value (“whiteness of cell pellets” below) ([1]; 1.6 ppm) read?
The value was “+”.

And the “whiteness of cell pellets” value ([1]; 3.1 ppm)?
Its value is “++”.

What about the “whiteness of cell pellets” value ([1]; 6.2 ppm) of the same compound?
The value was “+++”.

With `CCCC(O)C=CC1C(C)CCCC1(C)C` (stereo not drawn) [1″c] as the compound, how does the “whiteness of cell pellets” value ([1]; 1.6 ppm) read?
The value was “++”.

What about the “whiteness of cell pellets” value ([1]; 3.1 ppm) of the same compound?
The value was “+++”.

What about the “whiteness of cell pellets” value ([1]; 6.2 ppm) of the same compound?
The value was “+++”.

What does the source list for `CC(=O)/C=C/C1=C(C)CCCC1(C)C` [β-Ionone, β-ionone, reference compound]?
whiteness of cell pellets, evaluated visually ([1]; 0.4 ppm): −; whiteness of cell pellets, evaluated visually ([1]; 0.8 ppm): −; whiteness of cell pellets, evaluated visually ([1]; 1.6 ppm): −; whiteness of cell pellets, evaluated visually ([1]; 3.1 ppm): +; whiteness of cell pellets, evaluated visually ([1]; 6.2 ppm): ++

With `CCC(O)C=CC1C(C)CCCC1(C)C` (stereo not drawn) [1″b] as the compound, how does the “whiteness of cell pellets” value ([1]; 1.6 ppm) read?
Its value is “+”.

What about the “whiteness of cell pellets” value ([1]; 3.1 ppm) of the same compound?
The value was “++”.

And the “whiteness of cell pellets” value ([1]; 6.2 ppm)?
The value was “+++”.

With `CC(=O)CCC1=C(C)CCCC1(C)C` [Dihydro-β-ionone, dihydro-β-ionone, reference compound] as the compound, how does the “whiteness of cell pellets” value ([1]; 0.4 ppm) read?
Its value is “−”.

What about the “whiteness of cell pellets” value ([1]; 0.8 ppm) of the same compound?
The value was “−”.

What about the “whiteness of cell pellets” value ([1]; 1.6 ppm) of the same compound?
Its value is “−”.

And the “whiteness of cell pellets” value ([1]; 3.1 ppm)?
Its value is “+”.

And the “whiteness of cell pellets” value ([1]; 6.2 ppm)?
Its value is “++”.

With `CC(C)=CCCC(O)C=CC1C(C)CCCC1(C)C` (stereo not drawn) [Compound 1″l, 1-(2′,2′,6′-Trimethylcyclohexan-1′-yl)-7-methyloctan-1,6-dien-3-ol] as the compound, how does the “whiteness of cell pellets” value ([1]; 1.6 ppm) read?
Its value is “+++”.

And the “whiteness of cell pellets” value ([1]; 3.1 ppm)?
The value was “+++”.

What about the “whiteness of cell pellets” value ([1]; 6.2 ppm) of the same compound?
Its value is “+++”.

What does the source list for `CCCCCCCC(=O)C=CC1C(C)CCCC1(C)C` (stereo not drawn) [Compound 1′m, 1-(2′,2′,6′-Trimethylcyclohexan-1′-yl)-decan-1-en-3-one]?
whiteness of cell pellets, evaluated visually ([1]; 1.6 ppm): +; whiteness of cell pellets, evaluated visually ([1]; 3.1 ppm): +; whiteness of cell pellets, evaluated visually ([1]; 6.2 ppm): +++

Which results are given for `CC(C)CCCC(O)C=CC1C(C)CCCC1(C)C` (stereo not drawn) [Compound 1″k, 1-(2′,2′,6′-Trimethylcyclohexan-1′-yl)-7-methyloctan-1-en-3-ol]?
whiteness of cell pellets, evaluated visually ([1]; 1.6 ppm): +++; whiteness of cell pellets, evaluated visually ([1]; 3.1 ppm): +++; whiteness of cell pellets, evaluated visually ([1]; 6.2 ppm): +++

With `CCC(=O)C=CC1C(C)CCCC1(C)C` (stereo not drawn) [1′b] as the compound, how does the “whiteness of cell pellets” value ([1]; 1.6 ppm) read?
The value was “+”.

And the “whiteness of cell pellets” value ([1]; 3.1 ppm)?
The value was “++”.

And the “whiteness of cell pellets” value ([1]; 6.2 ppm)?
The value was “+++”.

What does the source list for `CC(C)=CCCC(=O)C=CC1C(C)CCCC1(C)C` (stereo not drawn) [Compound 1′l, 1-(2′,2′,6′-Trimethylcyclohexan-1′-yl)-7-methyloctan-1,6-dien-3-one]?
whiteness of cell pellets, evaluated visually ([1]; 1.6 ppm): +; whiteness of cell pellets, evaluated visually ([1]; 3.1 ppm): +++; whiteness of cell pellets, evaluated visually ([1]; 6.2 ppm): +++

With `OC[C@H]1O[C@@H](Oc2ccc(O)cc2)[C@H](O)[C@@H](O)[C@@H]1O` [ARBUTIN, arbutin, reference compound] as the compound, how does the “whiteness of cell pellets” value ([1]; 0.4 ppm) read?
Its value is “−”.

And the “whiteness of cell pellets” value ([1]; 0.8 ppm)?
Its value is “−”.

And the “whiteness of cell pellets” value ([1]; 1.6 ppm)?
The value was “−”.

And the “whiteness of cell pellets” value ([1]; 3.1 ppm)?
The value was “−”.

What about the “whiteness of cell pellets” value ([1]; 6.2 ppm) of the same compound?
Its value is “+”.

Which “whiteness of cell pellets” value ([1]; 0.4 ppm) does the source give for `CCCCCC(=O)C=CC1C(C)CCCC1(C)C` (stereo not drawn) [Compound 1′i, 1-(2′,2′,6′-Trimethylcyclohexan-1′-yl)octan-1-en-3-one] here?
Its value is “−”.

What about the “whiteness of cell pellets” value ([1]; 0.8 ppm) of the same compound?
The value was “+”.

What about the “whiteness of cell pellets” value ([1]; 1.6 ppm) of the same compound?
The value was “+++”.

What about the “whiteness of cell pellets” value ([1]; 3.1 ppm) of the same compound?
Its value is “+++”.

And the “whiteness of cell pellets” value ([1]; 6.2 ppm)?
The value was “+++”.

What about the “Number of panelists exhibiting abnormality” value [2] of the same compound?
The value was 0.

And the “Number ot panelists exhibiting no abnormality” value [2]?
Its value is 30.

For `CC(C)CCCC(=O)C=CC1C(C)CCCC1(C)C` (stereo not drawn) [Compound 1′k, 1-(2′,2′,6′-Trimethylcyclohexan-1′-yl)-7-methyloctan-1-en-3-one], which “whiteness of cell pellets” value ([1]; 1.6 ppm) is on record?
The value was “++”.

What about the “whiteness of cell pellets” value ([1]; 3.1 ppm) of the same compound?
Its value is “+++”.

And the “whiteness of cell pellets” value ([1]; 6.2 ppm)?
Its value is “+++”.

With `CC(C)CC(O)CCC1C(C)CCCC1(C)C` (stereo not drawn) [1^4′g] as the compound, how does the “whiteness of cell pellets” value ([1]; 1.6 ppm) read?
The value was “++”.

And the “whiteness of cell pellets” value ([1]; 3.1 ppm)?
Its value is “+++”.

What about the “whiteness of cell pellets” value ([1]; 6.2 ppm) of the same compound?
The value was “+++”.

Which results are given for `CCCCCC(=O)C(C)=CC1C(C)CCCC1(C)C` (stereo not drawn) [1′x, 1-(2′,2′,6′-Trimethylcyclohexan-1′-yl)-2-methyloctan-1-en-3-one]?
whiteness of cell pellets, evaluated visually ([1]; 1.6 ppm): +; whiteness of cell pellets, evaluated visually ([1]; 3.1 ppm): ++; whiteness of cell pellets, evaluated visually ([1]; 6.2 ppm): +++

What does the source list for `CCCCCC(O)C=CC1C(C)CCCC1(C)C` (stereo not drawn) [Compound 1″i, 1-(2′,2′,6′-trimethylcyclohexan-1′-yl)octan-1-en-3-ol]?
whiteness of cell pellets, evaluated visually ([1]; 0.4 ppm): −; whiteness of cell pellets, evaluated visually ([1]; 0.8 ppm): +; whiteness of cell pellets, evaluated visually ([1]; 1.6 ppm): +++; whiteness of cell pellets, evaluated visually ([1]; 3.1 ppm): +++; whiteness of cell pellets, evaluated visually ([1]; 6.2 ppm): +++; Number of panelists exhibiting abnormality [2]: 0; Number ot panelists exhibiting no abnormality [2]: 30

Which “whiteness of cell pellets” value ([1]; 1.6 ppm) does the source give for `CCCCCCCC(O)CCC1C(C)CCCC1(C)C` (stereo not drawn) [Compound 1^4′m, 1-(2′,2′,6′-Trimethylcyclohexan-1′-yl)-decan-3-ol] here?
Its value is “+”.

What about the “whiteness of cell pellets” value ([1]; 3.1 ppm) of the same compound?
The value was “+”.

What about the “whiteness of cell pellets” value ([1]; 6.2 ppm) of the same compound?
The value was “+”.

Which results are given for `CCCC(O)CCC1C(C)CCCC1(C)C` (stereo not drawn) [1^4′c]?
whiteness of cell pellets, evaluated visually ([1]; 1.6 ppm): +; whiteness of cell pellets, evaluated visually ([1]; 3.1 ppm): ++; whiteness of cell pellets, evaluated visually ([1]; 6.2 ppm): +++

What does the source list for `CC(C)C(O)CCC1C(C)CCCC1(C)C` (stereo not drawn) [1^4′e]?
whiteness of cell pellets, evaluated visually ([1]; 1.6 ppm): +; whiteness of cell pellets, evaluated visually ([1]; 3.1 ppm): ++; whiteness of cell pellets, evaluated visually ([1]; 6.2 ppm): +++

With `CCC(O)C(C)=CC1C(C)CCCC1(C)C` (stereo not drawn) [1″u] as the compound, how does the “whiteness of cell pellets” value ([1]; 1.6 ppm) read?
The value was “+”.

What about the “whiteness of cell pellets” value ([1]; 3.1 ppm) of the same compound?
Its value is “++”.

And the “whiteness of cell pellets” value ([1]; 6.2 ppm)?
The value was “+++”.

With `CCCCCCCC(O)C=CC1C(C)CCCC1(C)C` (stereo not drawn) [Compound 1″m, 1-(2′,2′,6′-Trimethylcyclohexan-1′-yl)-decan-1-en-3-ol] as the compound, how does the “whiteness of cell pellets” value ([1]; 1.6 ppm) read?
Its value is “+”.

What about the “whiteness of cell pellets” value ([1]; 3.1 ppm) of the same compound?
The value was “+”.

And the “whiteness of cell pellets” value ([1]; 6.2 ppm)?
Its value is “+++”.

With `CCCCCC(O)CCC1C(C)CCCC1(C)C` (stereo not drawn) [Compound 1^4′i, 1-(2′,2′,6′-Trimethylcyclohexan-1′-yl)-octan-3-ol] as the compound, how does the “whiteness of cell pellets” value ([1]; 0.4 ppm) read?
The value was “−”.

What about the “whiteness of cell pellets” value ([1]; 0.8 ppm) of the same compound?
The value was “−”.

What about the “whiteness of cell pellets” value ([1]; 1.6 ppm) of the same compound?
Its value is “++”.

And the “whiteness of cell pellets” value ([1]; 3.1 ppm)?
The value was “+++”.

What about the “whiteness of cell pellets” value ([1]; 6.2 ppm) of the same compound?
Its value is “+++”.

Which “whiteness of cell pellets” value ([1]; 1.6 ppm) does the source give for `CC(C)CC(O)C=CC1C(C)CCCC1(C)C` (stereo not drawn) [1″g] here?
Its value is “+++”.

What about the “whiteness of cell pellets” value ([1]; 3.1 ppm) of the same compound?
Its value is “+++”.

What about the “whiteness of cell pellets” value ([1]; 6.2 ppm) of the same compound?
Its value is “+++”.

With `CC(C)CC(=O)C=CC1C(C)CCCC1(C)C` (stereo not drawn) [1′g] as the compound, how does the “whiteness of cell pellets” value ([1]; 1.6 ppm) read?
Its value is “+”.

And the “whiteness of cell pellets” value ([1]; 3.1 ppm)?
The value was “++”.

And the “whiteness of cell pellets” value ([1]; 6.2 ppm)?
Its value is “+++”.

What does the source list for `CCC(O)CCC1C(C)CCCC1(C)C` (stereo not drawn) [1^4′b]?
whiteness of cell pellets, evaluated visually ([1]; 1.6 ppm): +; whiteness of cell pellets, evaluated visually ([1]; 3.1 ppm): ++; whiteness of cell pellets, evaluated visually ([1]; 6.2 ppm): +++

With `CC1CCCC(C)(C)C1C=CC(=O)C(C)(C)C` (stereo not drawn) [1′h] as the compound, how does the “whiteness of cell pellets” value ([1]; 1.6 ppm) read?
The value was “+”.

And the “whiteness of cell pellets” value ([1]; 3.1 ppm)?
The value was “++”.

And the “whiteness of cell pellets” value ([1]; 6.2 ppm)?
Its value is “+++”.

For `CC(O)CCC1C(C)CCCC1(C)C` (stereo not drawn) [Tetrahydroionol, tetrahydroionol, reference compound], which “whiteness of cell pellets” value ([1]; 0.4 ppm) is on record?
The value was “−”.

And the “whiteness of cell pellets” value ([1]; 0.8 ppm)?
Its value is “−”.

And the “whiteness of cell pellets” value ([1]; 1.6 ppm)?
Its value is “−”.

And the “whiteness of cell pellets” value ([1]; 3.1 ppm)?
Its value is “+”.

And the “whiteness of cell pellets” value ([1]; 6.2 ppm)?
Its value is “++”.

For `CCCCCC(O)C(C)=CC1C(C)CCCC1(C)C` (stereo not drawn) [Compound 1″x, 1-(2′,2′,6′-Trimethylcyclohexan-1′-yl)-2-methyloctan-1-en-3-ol], which “whiteness of cell pellets” value ([1]; 1.6 ppm) is on record?
Its value is “+”.

And the “whiteness of cell pellets” value ([1]; 3.1 ppm)?
Its value is “++”.

What about the “whiteness of cell pellets” value ([1]; 6.2 ppm) of the same compound?
Its value is “+++”.
